Data: ChEMBL document CHEMBL3507680, “University of Dundee, Gates Library screen for HepG2 cell viability”

Test: Human HepG2 cell viability assay in 384 well format
Assay type: toxicity, cell-based
Parameters: dose 125 nL, time 70.5 hour; concentration not given beside the values
Details: HepG2 cells, read-out: Inhibition

Compared with `CC(Cn1cncn1)NC(=O)N1CC2(CCCC2)c2ccccc21` (stereo not given), `CC(Cn1cncn1)NC(=O)NCC(C)(C)Cc1ccccc1` (stereo not given) is lower in cytotoxicity at 70.5 h: -1.39% for the first, -4.62% for the second.

First: CNC(=O)C1CCCN1C(=O)NCCCc1cccc(F)c1 (stereo not given)
Second: COc1ccc(C2CCCN2C(=O)NCCCn2cccn2)cc1 (stereo not given)
The cytotoxicity at 70.5 h of the first is higher: 1.01% for the first, -11% for the second.

Going from `Cc1cc(C(=O)Nc2ccc(-c3nnc(N(C)C)o3)cc2)oc1C` to `CC(C)c1nc2cc(NC(=O)Cn3ccc(=O)[nH]c3=O)ccc2o1`, the cytotoxicity at 70.5 h falls from 14.7% to -8.49%.

Going from `O=C(NCc1ccc(Br)cc1)C1(O)CCSCC1` to `O=C(NCc1ccc(Br)cc1F)C1(O)CCSCC1`, the cytotoxicity at 70.5 h falls from -1.14% to -2.81%.

First: O=C(NCc1cc(F)cc(Br)c1)C1(O)CCSCC1
Second: CS(=O)(=O)c1ccc2c(c1)N(C(=O)Cc1cccc(F)c1)CCC2
The cytotoxicity at 70.5 h of the first is lower: -4.03% for the first, -0.9% for the second.

Compared with `CCOc1ccc(Cl)c(C(=O)N2CCCC(N3CCCC3)C2)n1` (stereo not given), `CCc1ccc(O)c(C(=O)N2CCN(CC(=O)N3CCCCC3)CC2)c1` is higher in cytotoxicity at 70.5 h: -2.98% for the first, 11.8% for the second.

Going from `CC(C)c1nccn1CCC(=O)NCC(C)(O)c1ccco1` (stereo not given) to `CCN(CC)CCCC(C)NC(=O)c1cccnc1-n1cccn1` (stereo not given), the cytotoxicity at 70.5 h rises from -5.68% to 3.18%.

First: CC(C)COC(=O)N1CCCN(C(C)c2nc(C(C)C)no2)CC1 (stereo not given)
Second: CCc1nnc(C(C)N2CCCN(C(=O)OCC(C)C)CC2)o1 (stereo not given)
The cytotoxicity at 70.5 h of the first is lower: -3.98% for the first, 7.35% for the second.

Compared with `O=C(c1ccn(-c2ccc(F)cc2)n1)N(CCO)Cc1cccnc1`, `O=C(O)c1ccn(-c2ccccc2NS(=O)(=O)c2cccc(F)c2)n1` is lower in cytotoxicity at 70.5 h: 15.5% for the first, 7.58% for the second.

First: Cc1noc(C)c1CN(C)CC1CC(C2CCCCC2)=NO1 (stereo not given)
Second: Cc1noc(C)c1CN(C)C(=O)NC(C)Cc1ccco1 (stereo not given)
The cytotoxicity at 70.5 h of the first is lower: -2.46% for the first, -1.49% for the second.

Compared with `CC(C)c1nc(CNc2ccc(N3CCC(CO)CC3)cn2)cs1`, `OCC1CCN(c2ccc(NCc3ccsc3)nc2)CC1` is lower in cytotoxicity at 70.5 h: 1.5% for the first, -5.76% for the second.

Going from `Cc1cc(CN(C)C(=O)NCc2ccco2)no1` to `COCC(C)NC(=O)N(C)Cc1cc(C)on1` (stereo not given), the cytotoxicity at 70.5 h falls from -2.34% to -5.5%.

First: COc1ccc2c(c1)CN(c1nc(C)cc(C)n1)CC2
Second: CC(C)n1nc2c(cc1=O)CN(Cc1nc(-c3ccco3)no1)CC2
The cytotoxicity at 70.5 h of the first is higher: 3.73% for the first, -5.7% for the second.

Compared with `CC(NC(=O)Nc1cnn(CC(N)=O)c1)c1ccc(Cl)s1` (stereo not given), `COC(=O)C(CNC(=O)Nc1nncs1)Cc1cccc(C)c1` (stereo not given) is lower in cytotoxicity at 70.5 h: -1.05% for the first, -3.4% for the second.

First: Cc1ccc(C(C)(C)CNC(=O)NC(C)Cn2cncn2)cc1 (stereo not given)
Second: Cc1ccc(C(NC(=O)CN2CCc3c(ncn3C)C2)C2CC2)cc1 (stereo not given)
The cytotoxicity at 70.5 h of the first is higher: -0.962% for the first, -16.3% for the second.

Compared with `CCC(CO)NC(=O)Nc1ccc(OCC(F)(F)F)c(C)c1` (stereo not given), `Cc1cc(NC(=O)NC(C)CO)ccc1OCC(F)(F)F` (stereo not given) is lower in cytotoxicity at 70.5 h: -1.78% for the first, -2.25% for the second.

Going from `CC(CO)NC(=O)Nc1ccc(Cl)cc1OCC(F)(F)F` (stereo not given) to `CCOCC(=O)NCc1cc(Br)ccc1OC(F)F`, the cytotoxicity at 70.5 h rises from -4.37% to 0.394%.

First: CN(C(=O)c1ccncc1F)c1ccccc1S(C)(=O)=O
Second: CN(C(=O)c1ccncc1Cl)c1ccccc1S(C)(=O)=O
The cytotoxicity at 70.5 h of the first is lower: -1.8% for the first, 12.1% for the second.

Compared with `Cc1ccc(CNc2ccc(N3CCC(CO)CC3)cn2)o1`, `Cc1cnc(C(=O)N2CCC(COCc3ccccc3)C2)cn1` (stereo not given) is higher in cytotoxicity at 70.5 h: -2.34% for the first, -2.03% for the second.

First: Cc1noc(CCCC(=O)NCC(c2ccco2)N2CCCCC2)n1 (stereo not given)
Second: Cc1cccc(NC(=O)[C@@H]2CCCN2Cc2nc(C)c(C)o2)n1
The cytotoxicity at 70.5 h of the first is higher: -3% for the first, -9.4% for the second.

Going from `COC(=O)CN(C(=O)c1ccoc1)c1cccc(F)c1` to `Cc1cc(C)cc(C(=O)Nc2cccc(CN3CCCC3C(N)=O)c2)c1` (stereo not given), the cytotoxicity at 70.5 h rises from -8.55% to 6.78%.

Compared with `COCCCNc1cc(C(=O)N2CCOCC2)ccc1C`, `CC(C)N(C)CCNC(=O)N1CCN(Cc2ccon2)CC1` is higher in cytotoxicity at 70.5 h: -17.5% for the first, -5.35% for the second.

Going from `CS(=O)(=O)N1CCCC(C(=O)N2CCOc3ccccc32)C1` (stereo not given) to `O=C(C1CC1)N1CCN(C(=O)C2CC(=O)N(c3ccccc3Br)C2)CC1` (stereo not given), the cytotoxicity at 70.5 h rises from -14.4% to 26.2%.

First: CSC(C)(C)CNC(=O)NC1CCC1
Second: CSC(C)(C)CNC(=O)NC1CCN(CC(F)F)CC1
The cytotoxicity at 70.5 h of the first is higher: -1.66% for the first, -1.88% for the second.

Going from `CC(=O)NCC(=O)NC1CCc2nccn2C1` (stereo not given) to `CCS(=O)(=O)CC(=O)NC1CCc2nccn2C1` (stereo not given), the cytotoxicity at 70.5 h falls from 7.09% to -4.08%.

Compared with `CN(C)c1ncccc1NC(=O)C1CN(Cc2ccccc2)CCO1` (stereo not given), `CC(C)(C)n1cc(NC(=O)C2CN(Cc3ccccc3)CCO2)cn1` (stereo not given) is higher in cytotoxicity at 70.5 h: -2.14% for the first, -0.308% for the second.

First: CCCC(NC(=O)c1ccccc1Br)c1nnn[nH]1 (stereo not given)
Second: CCCC(NC(=O)c1ccc(OC)cc1C)c1nnn[nH]1 (stereo not given)
The cytotoxicity at 70.5 h of the first is lower: -3.33% for the first, 8.62% for the second.

First: CCCC(NC(=O)c1cncc(C)c1)c1nnn[nH]1 (stereo not given)
Second: CCN1CCC(CNC(=O)Nc2cccnc2OC)CC1
The cytotoxicity at 70.5 h of the first is higher: 6.22% for the first, -6.19% for the second.

Compared with `O=C(NC1CCN(c2cccc(OC(F)(F)F)c2)C1=O)C1CCC1` (stereo not given), `COc1ncccc1CNC(=O)N1CCC(CNC(C)=O)CC1` is lower in cytotoxicity at 70.5 h: -2.94% for the first, -8.01% for the second.

Going from `COc1cccc(Cc2nnc(SCCS(C)(=O)=O)o2)c1` to `c1nc(N2CCCC(Cn3cncn3)C2)c2ccsc2n1` (stereo not given), the cytotoxicity at 70.5 h rises from -8.26% to 38.8%.
